Source: patent publication US20110269777A1, “METHODS AND COMPOSITIONS FOR TREATING SCHIZOPHRENIA USING ANTIPSYCHOTIC COMBINATION THERAPY” (Medivation Neurology, Inc., priority 2007, published 2011)
Structures can show the parent of a compound that is named as a salt.

Columns and labels:
[1] = test system: patients with schizophrenia, paranoid type
[2] = test system: NMDA-induced currents in cultured rat hippocampus neurons (NMDA receptors); assay: NMDA-induced current blocking, patch clamp, whole cell configuration; type: cell-based; conditions: for Effect on the blocking effect of MK-801 on NMDA-induced currents: preliminary application before MK-801
Experimental: Experiments were carried out by the patch clamp method on freshly isolated neurons of a rat brain cortex or on cultured rat hippocampus neurons. Neurons for cultivation were obtained from the hippocampus of neonatal rats (1-2 days) by the method of trypsinization followed by pipetting. Cells suspended in culture medium were placed in 3 mL quantities into the wells of a 6-well planchette (Nunc) or into Petri dishes, in which glasses coated with poly-L-lysine had first been placed. The cell concentration as a rule was […]. The culture medium consisted of Eagle's minimum medium and a DME/F12 medium (1:1) supplemented with 10% calf serum, 2 mM glutamine, 50 μg/mL gentamycin, 15 mM glucose and 20 mM KCl, with the pH brought to between 7.0 and 7.4 using NaHCO3. Planchettes containing cultures were placed in a CO2— incubator at 37° C. and 100% humidity. Cytosine arabinoside (10-20 μL) was added on the second to third day of cultivation. After 6-7 days of cultivation 1 mg/mL glucose was added to the medium, or the medium was exchanged, depending on the following experiment. The cultured hippocampus neurons were placed in a 0.4 mL working chamber. The working solution had the following composition: 150.0 mM NaCl, 5.0 mM KCl, 2.6 mM CaCl2, 2.0 mM MgSO4×7H2O, 10 mM HEPES, and 15.0 mM Glucose, at pH 7.36.
Transmembrane currents produced by application of NMDA were registered by the patch clamp electrophysiological method in the whole cell configuration. Application of substances was done by the method of rapid superfusion. Currents were registered with the aid of borosilicate microelectrodes (resistance […]) filled with the following composition: 100.0 mM KCl, 11.0 mM EGTA, 1.0 mM CaCl2, 1.0 mM MgCl2, 10.0 mM HEPES, and 5.0 mM ATP, at pH 7.2. An EPC-9 instrument (HEKA, Germany) was used for registration. Currents were recorded on the hard disk of a Pentium-IV PC using the pulse program, which is also purchased from HEKA. The results were analyzed with the aid of the Pulsefit program (HEKA).

[3] = test system: patients with schizophrenia, paranoid type; assay: Double-blind placebo-controlled clinical study, neurocognitive assessment tests; type: in vivo, human
Experimental: (§1) A double-blind, placebo-controlled clinical study was conducted to evaluate the effect of a combination therapy of risperidone (3-[2-[4-(6-fluoro-1,2-benzoxazol-3-yl)piperidin-1-yl]ethyl]-2-methyl-6,7,8,9-tetrahydropyrido[2,1-b]pyrimidin-4-one) plus dimebon (2,8-dimethyl-5-(2-(6-methyl-3-pyridyl)ethyl)-2,3,4,5-tetrahydro-1H-pyrido[4,3-b]indole dihydrochloride) for treatment of chronic schizophrenia compared to risperidone treatment alone. The treatment trial was designed as randomized placebo-controlled, double-blind study of 60 patients meeting diagnostic criteria for schizophrenia, paranoid type, and episodic course (DSM IV-295.30).
(§2) The study included 60 patients with a diagnosis of continuous paranoid and episodic-progressive schizophrenia with a current condition of drug remission or development of drug remission, without regard to the syndrome determining the current mental status. […] According to DSM-IV, these patients met criteria 295.30, schizophrenia, paranoid type, […]. Patients were selected to participate in the study according to the following criteria: (1) inclusion criteria: male patients, 18 year old or older, schizophrenia, paranoid type, and episodic course in remission or partial remission and responders or partial responders to risperidone; and (2) exclusion criteria: excitement, impulsiveness or aggressive behavior (more than moderate), non-responders to antipsychotic treatment including risperidone, having mental disorders other than (or in addition to) schizophrenia, necessity of other treatment and severe acute somatic diseases or decompensated chronic somatic diseases.
(§3) In the first stage of the study (2 weeks), patients who provide an informed consent for participation in the study and who met the inclusion/exclusion criteria were switched to monotherapy with risperidone (dose adjustment of risperidone in range from 2 mg to 6 mg per day), and the clinical stability of the patients was evaluated weekly over two weeks. […] Again, clinical stability of the study participants was evaluated weekly for four weeks. In the third stage (8 weeks), after 4 weeks of monotherapy with risperidone, patients were divided into two groups. Group 1 received dimebon, (20 mg three times daily, n=23) in addition to risperidone therapy. Group 2 received a placebo (n=24) in addition to risperidone therapy. Again, clinical stability of the study participants was evaluated weekly for eight weeks. In the fourth stage (follow-up period), 6 months after completion of therapy within the framework of the protocol, the stability of the characteristics achieved in the course of the study were evaluated. In the fourth stage, clinical stability of the study participants was evaluated monthly for six months.
(§4) The study was conducted as follows. The patients were evaluated clinically and by psychopathological (descriptive) methods during every visit. The patients were evaluated according to the psychometric method at the end of the first period, at the end of the second period, after 4 weeks of the third period and at the end of the third period using the following criteria (A) Efficacy assessment scales such as (1) Positive and Negative Syndrome Scale (PANSS scale; Kay, S. R., Fiszbein, A., and Opler, L. A., Schizophrenia Bulletin 13(2):261-76 (1987)); (2) Clinical Global Impression-Severity (CGI-S) and Clinical Global Impression-Improvement (CGI-I); (3) Calgary depression rating scale (Addington, D., Addington, J., and Maticka-Tyndale E., British J. Psych. Suppl. 22:39-44 (1993)); and (4) Negative Symptoms Assessment-16 (NSA-16) (Alphs, L., Summerfelt, A., Lann, H., and Muller, R. J., Psychopharm. Bull. 25:159-163 (1989)); and (B) Safety scales such as (1) the Barnes Akathisia Rating Scale (BARS) (Barnes, T. R., British J. Psych. 154:672-676 (1989)); and (2) the Simpson-Angus Rating Scale (SARS) (Simpson, G. N. and Angus, J. W. S., Acta Psych. Scand. 212(suppl. 44):11-19 (1970)). […]

[4] = test system: patients with schizophrenia, paranoid type; assay: Double-blind placebo-controlled clinical study, efficacy assessment scales (PANSS, CGI, Calgary, NSA-16); type: in vivo, human
Experimental: as §1, §2, §3, §4

[5] = end (8 weeks dimebon + risperidone)
[6] = start (before adding dimebon to risperidone)
[7] = end (8 weeks dimebon 20 mg three times daily + risperidone)

SMILES: Cc1ccc2c(c1)c1c(n2CCc2ccc(C)nc2)CCN(C)C1 [Dimebon, 2,8-dimethyl-5-[2-(6-methylpyridyl-3)ethyl]-2,3,4,5-tetrahydro-1H-pyrido[4,3-b]indole dihydrochloride]
- safety issues ([1]; dimebon 20 mg three times daily + risperidone, 8 weeks): no safety issues
- BARS and SARS safety scales, difference between study groups ([1]; dimebon group vs placebo group): no differences
- Blockade of NMDA-induced currents (%) ([2]; at 10 μM, cultured rat hippocampus neurons): By 50-70% at 10 μM
- IC50 ([2]; average, read-out: IC50, blocking of currents caused by application of NMDA): 7.7 ± 1.9 µM
- Effect on the blocking effect of MK-801 on NMDA-induced currents [2]: capable of reducing
- verbal associative memory, psychomotor speed, visual-spatial memory and number aspects of executive functioning ([3]; dimebon group, start to end of 8 weeks on risperidone background): significant improvement
- Benton test: sum error [3, 5]: 6.5 ± 4.4
- Benton test: sum reconst [3, 5]: 6 ± 2.21
- Bourdohn test: attention concentration [3, 5]: 0.986 ± 0.013
- Bourdohn test: attention productivity [3, 5]: 497 ± 170
- Bourdohn test: attention stability [3, 5]: 0.009 ± 0.006
- CAT: correct answer account [3, 5]: 37 ± 8.2
- CAT: reaction time [3, 5]: 630.17 ± 195.55
- Schulte tables: sum time [3, 5]: 166 ± 64
- Text 1 Reconstruction 1. quantity of elements [3, 5]: 7 ± 2.6
- Text 2 Reconstruction 1 quantity of elements [3, 5]: 9 ± 3.0
- Tower of London - correct score [3, 5]: 3.26
- Tower of London - execution time [3, 5]: 234 ± 115
- Tower of London - sum total time > 60 sec [3, 5]: 0 ± 1.5
- Tower of London -move score [3, 5]: 34 ± 19
- Wechsler memory scale, subtest V: series A [3, 5]: 6 ± 0.9
- Wechsler memory scale, subtest V: sum A and B [3, 5]: 9.5 ± 2.7
- Wechsler memory scale, subtest V: sum A and B, (T-scores) [3, 5]: 8 ± 2.3
- Wechsler memory scale, subtest VII: sum comlex [3, 5]: 4.5 ± 3.34
- Wechsler memory scale, subtest VII: sum simple [3, 5]: 17 ± 2.9
- Wechsler memory scale, subtestV: series B [3, 5]: 4 ± 0.9
- Wechsler test, subtest VII: Symbol coding [3, 5]: 6 ± 1.4
- Wisconsin CS test - conceptual level responses, T score [3, 5]: 44 ± 6.7
- Wisconsin CS test - nonperseverative errors, T score [3, 5]: 43 ± 9.6
- Wisconsin CS test - perseverative responses, T score [3, 5]: 45 ± 5.53
- Wisconsin CS test - total error - T score [3, 5]: 43 ± 8.1
- Wisconsin CS test perseverative errors, T score [3, 5]: 44 ± 5.6
- Wisconsin CS test: categories completed [3, 5]: 5 ± 1.9
- Wisconsin CS test: total correct responses [3, 5]: 78 ± 14
- Benton test: sum error [3, 6]: 8 ± 3.8
- Benton test: sum reconst [3, 6]: 5 ± 1.7
- Bourdohn test: attention concentration [3, 6]: 0.975 ± 0.03
- Bourdohn test: attention productivity [3, 6]: 399 ± 123
- Bourdohn test: attention stability [3, 6]: 0.01 ± 0.01
- CAT: correct answer account [3, 6]: 35 ± 8.5
- CAT: reaction time [3, 6]: 606.74±
- Schulte tables: sum time [3, 6]: 160 ± 105
- Text 1 Reconstruction 1. quantity of elements [3, 6]: 5 ± 2.3
- Text 2 Reconstruction 1 quantity of elements [3, 6]: 7 ± 2.7
- Tower of London - correct score [3, 6]: 2 ± 1.1
- Tower of London - execution time [3, 6]: 298 ± 227
- Tower of London - sum total time > 60 sec [3, 6]: 1.5 ± 3
- Tower of London -move score [3, 6]: 46 ± 25
- Wechsler memory scale, subtest V: series A [3, 6]: 6 ± 1
- Wechsler memory scale, subtest V: sum A and B [3, 6]: 10 ± 1.7
- Wechsler memory scale, subtest V: sum A and B, (T-scores) [3, 6]: 9 ± 2.3
- Wechsler memory scale, subtest VII: sum comlex [3, 6]: 3 ± 2.7
- Wechsler memory scale, subtest VII: sum simple [3, 6]: 14 ± 4
- Wechsler memory scale, subtestV: series B [3, 6]: 4 ± 1.2
- Wechsler test, subtest VII: Symbol coding [3, 6]: 5 ± 1.8
- Wisconsin CS test - conceptual level responses, T score [3, 6]: 43 ± 5.9
- Wisconsin CS test - nonperseverative errors, T score [3, 6]: 41 ± 7.9
- Wisconsin CS test - perseverative responses, T score [3, 6]: 43 ± 8.38
- Wisconsin CS test - total error - T score [3, 6]: 43 ± 6.8
- Wisconsin CS test perseverative errors, T score [3, 6]: 43 ± 8.21
- Wisconsin CS test: categories completed [3, 6]: 4 ± 1.7
- Wisconsin CS test: total correct responses [3, 6]: 79 ± 16
- total PANSS score relative to placebo ([4]; adjunctive dimebon on background risperidone therapy): significant reduction
- % improvement [4, 7]: 8.14 ± 49.4%
- CGI I [4, 7]: 2.7 ± 1.0
- CGI-S [4, 7]: 3.9 ± 1.2
- Calgary scale of depression [4, 7]: 8.1 ± 9.97
- NSA-16 [4, 7]: 48.5 ± 22.7
- PANSS general psychopathol [4, 7]: 31.4 ± 11.1
- PANSS negative [4, 7]: 18.48 ± 7.01
- PANSS positive [4, 7]: 12.0 ± 5.9
- PANSS total [4, 7]: 61.9 ± 22.2
- CGI-S [4, 6]: 4.3 ± 1
- Calgary scale of depression [4, 6]: 11.6 ± 11.6
- NSA-16 [4, 6]: 64.65 ± 22.8
- PANSS general psychopathol [4, 6]: 39.1 ± 8.1
- PANSS negative [4, 6]: 22.5 ± 5.15
- PANSS positive [4, 6]: 16.9 ± 4.6
- PANSS total [4, 6]: 78.5 ± 14.1

SMILES: N[C@H](CCCP(=O)(O)O)C(=O)O [D-AP5, D-2-amino-5-phosphonovaleric acid, reference compound]
- Effect on the blocking effect of MK-801 on NMDA-induced currents [2]: did not decrease
